Laboratory results reported in patent US9750747B2, “Treatments involving eslicarbazepine acetate or eslicarbazepine” (BAIL-PORTELA & CA, S.A., priority 2011, dated 2017).
“Also recorded” adds a separate entry of the source. Read-outs that look alike come from different tables or passages of the source.

Key:
α1β2γ2 GABA receptors = molecular target: T1, α1β2γ2 GABA receptors (Homo sapiens, UniProt P14867+P18507+P47870); test: whole-cell patch-clamp, sub-maximal GABA inward currents in stably transfected Ltk cells; type: cell-based; settings: Table 1
T1 construct: host or cells: Ltk cells, expression induced with dexamethasone
Method: (§1) Carbamazepine (CBZ) aggravates absence seizures in ‘generalized absence epilepsy rats from. Strasbourg’. One putative mechanism for the aggravation is through its reported potentiation of GABAA currents. A study was carried out to determine the effect of eslicarbazepine, R-licarbazepine and carbamazepine on sub-maximal GABA currents in Ltk cells stably expressing α1β2γ2, α2β2γ2, α3β2γ2 or α5β2γ2 GABA-receptors. The whole-cell patch-clamp technique was used to investigate the effects of the test compounds on GABAA receptors.
(§2) Used Ltk cells were stably transfected with recombinant GABAA cDNAs: α1β2γ2, α2β2γ2, α3β2γ2 or α5β2γ2 (B'SYS GmbH, Switzerland). […] For the electrophysiological experiments cells were cultivated, at a density that enabled single cells to be measured, in medium without antibiotics or antimycotics. Cells were tested 24-48 hours following induction of transgene expression with dexamethasone.
(§3) The whole-cell patch clamp recordings from transfected Ltk cells (voltage-clamped at a holding potential of −80 mV) were made using a EPC-7, HEKA Electronics amplifier. GABA inward-currents were measured upon application of 1 or 2 μM GABA to patch-clamped cells (at an EC5).
(§4) Analysis of Variance (ANOVA) with post test multisample comparison (Dunnett) was conducted with GraphPad Prism 4 Software.

α2β2γ2 GABA receptors = molecular target: T2, α2β2γ2 GABA receptors (Homo sapiens, UniProt P18507+P47869+P47870); test: as above; type: cell-based; settings: Table 1
T2 construct: host or cells: Ltk cells, expression induced with dexamethasone
Method: as §1, §2, §3, §4

α3β2γ2 GABA receptors = molecular target: T3, α3β2γ2 GABA receptors (Homo sapiens, UniProt P18507+P34903+P47870); test: as above; type: cell-based; settings: Table 1
T3 construct: host or cells: Ltk cells, expression induced with dexamethasone
Method: as §1, §2, §3, §4

α5β2γ2 GABA receptors = molecular target: T4, α5β2γ2 GABA receptors (Homo sapiens, UniProt P18507+P31644+P47870); test: as above; type: cell-based; settings: Table 1
T4 construct: host or cells: Ltk cells, expression induced with dexamethasone
Method: as §1, §2, §3, §4

[1] = molecular target: T5, human T-type calcium channels hCav3.2 (Homo sapiens, UniProt O95180); test: whole-cell patch-clamp, calcium peak currents in stably transfected HEK 293 cells; type: cell-based; settings: for Relative current amplitude (%): hCav3.2 in HEK 293 cells; for IC50: two site binding model
T5 construct: expressed in transfected cells; host or cells: HEK 293 cells (European Collection of Animal Cell Culture)
Method: A study was carried out to determine the effect of eslicarbazepine.
Cells were stably transfected with hCav3.2 cDNA.
Calcium inward currents were measured upon depolarization of the cell membrane to −25 mV for 50 ms from a holding potential of −80 mV. This voltage protocol was run at intervals of 10 s until stabilization of evoked hCav3.2 currents. […] Vehicle was either bath solution or 0.2% DMSO.
Analysis of variance (ANOVA) with post test multisample comparison (Dunnett) was conducted with GraphPad Prism 4 Software. IC50 were calculated with the equation: […]

[2] = system: α1β2γ2, α2β2γ2, α3β2γ2 or α5β2γ2 GABA-receptors; test: overall effect on sub-maximal GABA currents (summary of Example 1); type: cell-based; settings: Ltk cells, all four receptor subtypes
Method: as §1
Used Ltk cells were stably transfected with recombinant GABAA cDNAs: α1β2γ2, α2β2γ2, α3β2γ2 or α5β2γ2 (B'SYS GmbH, Switzerland). Cells were maintained in a humidified atmosphere (95% relative humidity) with 5% CO2 and were grown in D-MEM/F-12 (1×, liquid, with GlutaMax 1) supplemented with 9% foetal bovine serum and 0.9% Penicillin/Streptomycin solution (Gibco BRL). For the electrophysiological experiments cells were cultivated, at a density that enabled single cells to be measured, in medium without antibiotics or antimycotics. Cells were tested 24-48 hours following induction of transgene expression with dexamethasone.
Cells were continuously perfused with bath solution (NaCl 137 mM, KCl 4 mM, CaCl2 1.8 mM, MgCl2 1 mM, D-Glucose 10 mM HEPES 10 mM, pH 7.4). […] GABA inward-currents were measured upon application of 1 or 2 μM GABA to patch-clamped cells (at an EC5). […]

absence seizure = test: mouse absence seizure models (γ-butyrolactone induced, SSADH null, stargazer, C3H/He); type: in vivo; settings: mice models (a)-(d)
[3] = system: primary generalised tonic clonic seizure (PGTCS); test: randomised double-blind placebo controlled trial of adjunctive treatment in PGTCS; type: in vivo; settings: human patients, adjunct or monotherapy
Source text: Clinical trial study: A randomised double-blind, placebo controlled, trial assesses the efficacy and safety of adjunctive eslicarbazepine acetate in primary generalised tonic clonic seizure (PGTCS) in human patients in accordance with established methods. Methods: Men and women are selected for trial according to standard inclusion criteria in the field including the following: • Subject is male or female and aged 6-65 years. • Subject has ≧3 PGTCS over the two months before screening and during the eight weeks Baseline Period with at least one seizure in each one month period. […] Trial endpoints assessed clinical criteria are as follows: • time to withdrawal after randomisation; • time to first, second, or other seizure after randomisation (time to first seizure after randomisation allows determination of the proportion of patients at different time points who remain seizure free); • time to achieving remission (e.g. at six months, one year, or two years); • change in seizure severity; • change in seizure frequency; • percentage response to treatment (response defined as a 50% or greater reduction in seizure frequency); • change in seizure-free interval; • change in seizure duration; • change in seizure pattern; • change in functional capacity; and • patient-related quality of life.

[4] = 50 μM with GABA at EC5, Ltk cells
[5] = 100 μM with GABA at EC5, Ltk cells
[6] = 250 μM with GABA at EC5, Ltk cells
[7] = 500 μM with GABA at EC5, Ltk cells

T5 sequence (O95180 whole entry): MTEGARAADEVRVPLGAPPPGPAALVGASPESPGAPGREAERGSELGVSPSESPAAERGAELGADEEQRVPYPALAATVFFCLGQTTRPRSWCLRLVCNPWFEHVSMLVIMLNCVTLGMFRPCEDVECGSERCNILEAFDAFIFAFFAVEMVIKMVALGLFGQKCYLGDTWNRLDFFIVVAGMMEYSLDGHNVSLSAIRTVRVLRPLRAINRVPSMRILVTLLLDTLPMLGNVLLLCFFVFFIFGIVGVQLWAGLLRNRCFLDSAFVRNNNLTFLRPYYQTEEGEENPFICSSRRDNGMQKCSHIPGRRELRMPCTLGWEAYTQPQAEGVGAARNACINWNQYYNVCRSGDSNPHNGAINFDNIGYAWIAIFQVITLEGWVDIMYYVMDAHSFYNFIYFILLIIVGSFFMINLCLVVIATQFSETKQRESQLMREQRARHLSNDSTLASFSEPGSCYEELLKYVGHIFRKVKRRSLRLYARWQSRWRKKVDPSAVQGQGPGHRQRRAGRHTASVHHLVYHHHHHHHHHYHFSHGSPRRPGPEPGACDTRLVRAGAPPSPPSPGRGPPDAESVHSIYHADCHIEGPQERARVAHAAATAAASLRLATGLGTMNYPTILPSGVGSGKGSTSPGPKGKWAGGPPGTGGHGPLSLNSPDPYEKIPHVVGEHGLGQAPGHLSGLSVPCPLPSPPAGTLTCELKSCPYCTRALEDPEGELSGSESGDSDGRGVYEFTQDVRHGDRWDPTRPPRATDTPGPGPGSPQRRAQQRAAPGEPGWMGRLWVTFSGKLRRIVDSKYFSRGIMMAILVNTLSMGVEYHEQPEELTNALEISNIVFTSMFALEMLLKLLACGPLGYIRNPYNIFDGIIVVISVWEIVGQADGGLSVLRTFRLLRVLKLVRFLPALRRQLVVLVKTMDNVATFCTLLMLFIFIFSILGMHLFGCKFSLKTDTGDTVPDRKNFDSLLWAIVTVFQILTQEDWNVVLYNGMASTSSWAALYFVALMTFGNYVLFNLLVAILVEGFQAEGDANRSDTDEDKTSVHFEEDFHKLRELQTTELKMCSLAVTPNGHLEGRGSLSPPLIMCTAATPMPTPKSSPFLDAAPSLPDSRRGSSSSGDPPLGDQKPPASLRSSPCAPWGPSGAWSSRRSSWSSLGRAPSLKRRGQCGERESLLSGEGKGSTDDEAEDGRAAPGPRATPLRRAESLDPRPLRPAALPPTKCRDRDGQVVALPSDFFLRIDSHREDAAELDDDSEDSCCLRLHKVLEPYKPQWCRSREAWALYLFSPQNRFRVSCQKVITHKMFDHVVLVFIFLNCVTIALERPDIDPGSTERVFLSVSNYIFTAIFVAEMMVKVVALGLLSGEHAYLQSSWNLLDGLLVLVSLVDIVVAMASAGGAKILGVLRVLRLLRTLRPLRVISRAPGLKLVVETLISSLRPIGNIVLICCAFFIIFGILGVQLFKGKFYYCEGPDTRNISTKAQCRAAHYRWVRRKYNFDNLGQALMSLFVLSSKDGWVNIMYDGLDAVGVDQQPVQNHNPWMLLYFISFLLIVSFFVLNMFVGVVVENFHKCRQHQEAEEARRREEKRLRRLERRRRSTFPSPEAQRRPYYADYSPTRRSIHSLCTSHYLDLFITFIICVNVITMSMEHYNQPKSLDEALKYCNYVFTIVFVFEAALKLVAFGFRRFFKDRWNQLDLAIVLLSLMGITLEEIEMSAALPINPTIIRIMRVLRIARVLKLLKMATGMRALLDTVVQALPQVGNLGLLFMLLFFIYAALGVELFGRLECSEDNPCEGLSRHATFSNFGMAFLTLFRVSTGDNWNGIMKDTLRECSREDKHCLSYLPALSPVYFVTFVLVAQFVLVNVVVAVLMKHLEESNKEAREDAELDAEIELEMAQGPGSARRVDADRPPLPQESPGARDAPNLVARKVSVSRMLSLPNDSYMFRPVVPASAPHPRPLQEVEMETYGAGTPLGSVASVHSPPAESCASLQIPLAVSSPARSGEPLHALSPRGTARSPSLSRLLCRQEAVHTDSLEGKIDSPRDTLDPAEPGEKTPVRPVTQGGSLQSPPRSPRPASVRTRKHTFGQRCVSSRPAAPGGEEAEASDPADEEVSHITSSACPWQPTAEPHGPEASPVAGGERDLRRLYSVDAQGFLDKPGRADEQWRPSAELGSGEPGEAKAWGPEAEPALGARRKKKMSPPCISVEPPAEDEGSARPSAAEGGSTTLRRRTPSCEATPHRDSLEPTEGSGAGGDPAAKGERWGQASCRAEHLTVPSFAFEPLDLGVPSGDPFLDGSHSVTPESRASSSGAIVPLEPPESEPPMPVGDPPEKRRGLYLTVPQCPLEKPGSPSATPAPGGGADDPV
T3 sequence (P34903 29-492): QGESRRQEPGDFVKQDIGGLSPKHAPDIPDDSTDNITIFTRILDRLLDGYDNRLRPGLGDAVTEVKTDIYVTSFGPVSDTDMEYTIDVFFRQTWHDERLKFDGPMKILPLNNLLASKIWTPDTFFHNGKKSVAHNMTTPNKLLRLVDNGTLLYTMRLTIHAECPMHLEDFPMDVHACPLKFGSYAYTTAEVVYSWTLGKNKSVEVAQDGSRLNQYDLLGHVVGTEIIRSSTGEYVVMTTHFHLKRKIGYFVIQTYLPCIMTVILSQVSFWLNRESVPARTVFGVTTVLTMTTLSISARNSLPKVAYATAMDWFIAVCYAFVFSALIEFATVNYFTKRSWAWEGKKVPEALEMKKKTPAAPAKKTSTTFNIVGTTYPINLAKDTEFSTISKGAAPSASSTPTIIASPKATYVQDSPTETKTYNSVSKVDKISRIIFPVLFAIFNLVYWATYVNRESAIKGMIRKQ
T3 sequence (P47870 25-512 limits assumed): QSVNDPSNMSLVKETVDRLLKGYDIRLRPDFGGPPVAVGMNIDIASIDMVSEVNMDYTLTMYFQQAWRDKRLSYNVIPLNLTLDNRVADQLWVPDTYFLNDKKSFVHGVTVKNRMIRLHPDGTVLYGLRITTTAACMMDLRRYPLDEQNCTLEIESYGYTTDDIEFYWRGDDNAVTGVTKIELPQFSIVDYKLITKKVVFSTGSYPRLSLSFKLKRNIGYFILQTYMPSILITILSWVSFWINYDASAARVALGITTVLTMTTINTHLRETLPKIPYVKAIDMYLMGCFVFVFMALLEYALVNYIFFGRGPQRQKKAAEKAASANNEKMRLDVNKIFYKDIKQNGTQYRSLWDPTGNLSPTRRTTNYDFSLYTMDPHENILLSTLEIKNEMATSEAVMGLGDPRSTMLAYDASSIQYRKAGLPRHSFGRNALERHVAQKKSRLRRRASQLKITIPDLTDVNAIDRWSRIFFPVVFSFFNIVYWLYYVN
T3 sequence (P18507 40-475): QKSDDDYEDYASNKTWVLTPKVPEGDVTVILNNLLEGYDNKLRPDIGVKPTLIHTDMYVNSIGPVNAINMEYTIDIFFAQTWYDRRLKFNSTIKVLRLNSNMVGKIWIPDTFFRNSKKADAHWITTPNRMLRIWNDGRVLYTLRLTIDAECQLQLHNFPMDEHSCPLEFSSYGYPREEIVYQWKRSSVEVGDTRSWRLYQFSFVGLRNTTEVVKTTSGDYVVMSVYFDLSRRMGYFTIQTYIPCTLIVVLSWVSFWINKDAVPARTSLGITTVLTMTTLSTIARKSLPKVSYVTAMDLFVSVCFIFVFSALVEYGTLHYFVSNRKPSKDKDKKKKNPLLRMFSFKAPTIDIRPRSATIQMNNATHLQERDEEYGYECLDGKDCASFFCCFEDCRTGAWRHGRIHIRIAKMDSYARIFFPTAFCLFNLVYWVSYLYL
T1 sequence (P14867 28-456): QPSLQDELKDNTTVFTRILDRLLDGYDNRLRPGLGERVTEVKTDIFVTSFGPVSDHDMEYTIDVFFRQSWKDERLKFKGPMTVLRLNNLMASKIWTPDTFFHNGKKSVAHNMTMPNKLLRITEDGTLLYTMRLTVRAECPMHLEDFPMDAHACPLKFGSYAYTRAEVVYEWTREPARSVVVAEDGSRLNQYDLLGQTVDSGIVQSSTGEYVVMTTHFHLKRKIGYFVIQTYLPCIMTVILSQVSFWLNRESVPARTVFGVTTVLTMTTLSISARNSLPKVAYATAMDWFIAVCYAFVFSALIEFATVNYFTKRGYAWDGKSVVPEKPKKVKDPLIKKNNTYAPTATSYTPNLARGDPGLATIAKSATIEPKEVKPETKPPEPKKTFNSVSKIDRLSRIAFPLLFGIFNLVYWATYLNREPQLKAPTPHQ
T1 sequence (P47870 25-512 limits assumed): as the sequence (P47870 25-512 limits assumed) above
T1 sequence (P18507 40-475): as the sequence (P18507 40-475) above
T4 sequence (P31644 32-462): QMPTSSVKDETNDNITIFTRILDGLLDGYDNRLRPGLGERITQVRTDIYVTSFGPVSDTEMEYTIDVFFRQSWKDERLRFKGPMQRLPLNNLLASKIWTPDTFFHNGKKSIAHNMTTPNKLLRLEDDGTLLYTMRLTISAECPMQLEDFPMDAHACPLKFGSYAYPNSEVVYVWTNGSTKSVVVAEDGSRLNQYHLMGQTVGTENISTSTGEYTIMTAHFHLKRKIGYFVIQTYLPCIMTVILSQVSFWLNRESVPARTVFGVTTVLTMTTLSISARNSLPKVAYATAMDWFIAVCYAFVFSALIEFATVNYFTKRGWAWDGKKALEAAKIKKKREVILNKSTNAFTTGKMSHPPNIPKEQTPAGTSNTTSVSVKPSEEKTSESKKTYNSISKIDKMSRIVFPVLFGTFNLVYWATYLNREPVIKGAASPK
T4 sequence (P47870 25-512 limits assumed): as the sequence (P47870 25-512 limits assumed) above
T4 sequence (P18507 40-475): as the sequence (P18507 40-475) above

For NC(=O)N1c2ccccc2C[C@H](O)c2ccccc21 [Eslicarbazepine, (S)-10-hydroxy-10,11-dihydro-5H-dibenz[b,f]azepine-5-carboxamide], the “Current stimulation (%) α1β2γ2” value (α1β2γ2 GABA receptors; [4]) was 103.3 ± 1.96%, the “Current stimulation (%) α1β2γ2” value (α1β2γ2 GABA receptors; [5]) was 95.92 ± 0.83% and the “Current stimulation (%) α1β2γ2” value (α1β2γ2 GABA receptors; [6]) was 97.82 ± 1.13%. For the same compound, the “Current stimulation (%) α1β2γ2” value (α1β2γ2 GABA receptors; [7]) was 99.39 ± 0.80%, the “Current stimulation (%) α2β2γ2” value (α2β2γ2 GABA receptors; [4]) was 91.58 ± 2.69% and the “Current stimulation (%) α2β2γ2” value (α2β2γ2 GABA receptors; [5]) was 97.04 ± 2.65%. For the same compound, the “Current stimulation (%) α2β2γ2” value (α2β2γ2 GABA receptors; [6]) was 88.56 ± 3.24 %, the “Current stimulation (%) α2β2γ2” value (α2β2γ2 GABA receptors; [7]) was 89.80 ± 4.01% and the “Current stimulation (%) α3β2γ2” value (α3β2γ2 GABA receptors; [4]) was 95.61 ± 4.75%. For the same compound, the “Current stimulation (%) α3β2γ2” value (α3β2γ2 GABA receptors; [5]) was 97.93 ± 4.22%, the “Current stimulation (%) α3β2γ2” value (α3β2γ2 GABA receptors; [6]) was 96.44 ± 2.16% and the “Current stimulation (%) α3β2γ2” value (α3β2γ2 GABA receptors; [7]) was 91.63 ± 5.56%. The “Current stimulation (%) α5β2γ2” value (α5β2γ2 GABA receptors; [4]) was 95.18 ± 2.18%, the “Current stimulation (%) α5β2γ2” value (α5β2γ2 GABA receptors; [5]) was 93.89 ± 0.60% and the “Current stimulation (%) α5β2γ2” value (α5β2γ2 GABA receptors; [6]) was 93.52 ± 1.75%. For the same compound, the “Current stimulation (%) α5β2γ2” value (α5β2γ2 GABA receptors; [7]) was 89.65 ± 3.44%, the “effect on hCav3.2 calcium peak currents (in words)” value [1] was “dose dependently inhibited; also recorded: effectively inhibits high and low affinity hCav3.2 inward currents” and the “Relative current amplitude (%)” value ([1]; 0.3 μM) was 86.99 ± 1.56 %. For the same compound, the “Relative current amplitude (%)” value ([1]; 1 μM) was 81.61 ± 1.31 %, the “Relative current amplitude (%)” value ([1]; 3 μM) was 76.21 ± 1.61 % and the “Relative current amplitude (%)” value ([1]; 10 μM) was 71.22 ± 2.40 %. The “Relative current amplitude (%)” value ([1]; 30 μM) was 73.04 ± 1.64 %, the “Relative current amplitude (%)” value ([1]; 50 μM) was 61.44 ± 4.96 % and the “Relative current amplitude (%)” value ([1]; 100 μM) was 54.68 ± 6.35 %. For the same compound, the “Relative current amplitude (%)” value ([1]; 250 μM) was 46.92 ± 6.64 %, the “Relative current amplitude (%)” value ([1]; 500 μM) was 51.83 ± 4.77 % and the “Relative current amplitude (%)” value ([1]; 1000 μM) was 45.48 ± 4.94 %. The IC50 ([1]; high affinity fit, read-out: hCav3.2 IC50 (μM) High affinity) was 0.43 µM, the IC50 ([1]; low affinity fit, read-out: hCav3.2 IC50 (μM) Low affinity) was 62.6 µM and the “effects upon sub-maximal GABA currents (in words)” value [2] was “devoid of effects”. For the same compound, the “controlling seizures in mouse absence seizure models” value (absence seizure) was “effective in controlling seizures”.

CC(=O)O[C@H]1Cc2ccccc2N(C(N)=O)c2ccccc21 [eslicarbazepine acetate, (S)-10-acetoxy-10,11-dihydro-5H-dibenz[b,f]azepine-5-carboxamide] was tested, and the “controlling seizures in mouse absence seizure models” value (absence seizure) was “effective in controlling seizures” and the “clinical effects in patients suffering from or susceptible to PGTCS” value [3] was “improved clinical effects”.
